Patent publication US10242153B2, “Method for determining the risk profile of neoplastic tissue” (NOVAZOI THERANOSTICS, priority 2014, dated 2019)

Columns and labels:
[1] = system: ZR-75-30 cells with amplified centrosomes (ZR-A); experiment: Sub-G1 population in ZR-75-30 cells with amplified centrosomes (ZR-A) versus parent cells; type: cell-based; settings: 25 μM, 48 h
Method: Panel A depicts representative DNA histograms comparing cell-cycle kinetics of ZR-75-30 cells and ZR-A cells treated with bromonoscapine (BN, 25 μM), griseofulvin (GF, 25 μM) or PJ34 (25 μM), respectively for 48 h. […] Panel B depicts a quantitative comparison of sub-G1 population in ZR-75-30 and ZR-A cells upon treatment with the three drugs with the same concentration (25 μM) for the same duration (48 h).
Accordingly, these cells can be pharmacologically manipulated with aphidicolin to generate extra centrosomes. […] Following aphidicolin wash-out, cells were stained using anti-centrin-2 antibodies to verify extra centrosomes by immunofluorescence confocal microscopy. About ˜60% ZR-75-30 cells generated extra centrosomes (6-8 per cell) and were evaluated for their sensitivity to the three drugs, griseofulvin, bromonoscapine, and PJ34, and compared with parent ZR-75-30 cells with normal centrosomes.

[2] = system: HeLa cells; experiment: Centrosome amplification (CA) by microscopy, HeLa cells; type: cell-based; settings: for cells having CA (maximum extent) / increase in CA over controls: mitotic HeLa cells
Method: (§1) Consequently, CA was assessed in cultures treated with different concentrations of declustering drugs for 6, 12, 18, or 24 h and untreated controls via microscopy. Centrosomes were identified by γ-tubulin and centrin-2 colocalization at discrete foci. […] The peak percent CA detected over 24 h is shown in FIG. 13 (only statistically significant (P<0.05) increases over control values are represented in the Figures). To better understand the “potency” of drug-induced CA with time, the average fold change in CA over controls over 24 h was assessed (FIG. 12, panel A), whereby the extent of CA across time points (i.e., 6, 12, 18, and 24 hr) was averaged and then divided by the extent of CA in control (i.e., 0 hr). All of the drugs at least doubled the peak extent of CA in all cell lines tested (FIG. 12, panel A), although the final extent of CA could be small or large in magnitude depending on the initial centrosomal burden as shown in FIG. 11. […] The peak extent in interphase HeLa cells was somewhat less at 30.7% and 48.1% for 10 and 25 μM RBN, respectively (FIG. 13, panel A). For Nos and BN, there was no major difference in CA levels in interphase versus mitotic cells.

[3] = system: adult human dermal fibroblasts (HDFs); experiment: Centrosome amplification (CA) by microscopy, HDFs; type: cell-based; settings: for peak CA: interphase HDFs
Method: (§2) Consequently, CA was assessed in cultures treated with different concentrations of declustering drugs for 6, 12, 18, or 24 h and untreated controls via microscopy. Centrosomes were identified by γ-tubulin and centrin-2 colocalization at discrete foci.
To determine whether the CA-inducing activity of declustering drugs is restricted to cancer cells, two non-malignant cell lines, mammary fibrocystic (MCF10A) cells and adult human dermal fibroblasts (HDFs) were treated with these drugs. […] In comparison, 10 and 25 µM RBN increased peak CA over controls in interphase cells (p<0.001 and p=0.001, respectively), with the lower concentration dramatically augmenting peak CA to 56% of cells versus 15% for the higher dose (FIG. 13, panel B).

[4] = system: N1E-115 cells; experiment: Neuritogenesis (neurite extension) in serum-starved N1E-115 cells; type: cell-based, murine; settings: 48 h, PJ-34 10 μM, Paclitaxel 0.05 μM
Method: N1E-115 cells grown in serum-starved (SS) medium were evaluated to determine the extent of neurite formation after 48 h of treatment with RedBr-Nos (5 μM), Griseofulvin (10 μM), PJ-34 (10 μM), Paclitaxel (0.05 μM) treatment or untreated control cells (i.e., serum-starved medium (SS) alone). Panels Ai and Aii depict quantitative bar graphs representing the average length of neurites and percentage of population of cells showing neurite length >10 μm, respectively. A hundred cells were counted in each case. […] Panel B depicts an immunoblot showing CLASP1 expression levels in control (C) and CLASP1 siRNA-transfected N1E-115 cells.
Neuritogenesis is a process in nerve cells involving the extension of polarized, elongated neurites. N1E-115 cells usually extend only one major neurite per cell, which can vary in length from 5 to 500 μm. The growth cones of the neurites serve as primary focal points of motility. The effect of declustering agents on cell motility was evaluated by assessing the length and frequency of neurites formed in a serum-free medium on a laminin-coated surface.

[5] = system: PLK4, Cyclin E, and Aurora A; experiment: Western blotting of markers of centrosome amplification; type: cell-based; settings: PC3 cells, 25 μM
[6] = system: 231, HeLa and PC3 cells; experiment: Centrosome amplification (CA) by microscopy across cancer cell lines; type: cell-based; settings: 25 μM
Method: as §2
The peak percent CA detected over 24 h is shown in FIG. 13 (only statistically significant (P<0.05) increases over control values are represented in the Figures).
To better understand the “potency” of drug-induced CA with time, the average fold change in CA over controls over 24 h was assessed (FIG. 12, panel A), whereby the extent of CA across time points (i.e., 6, 12, 18, and 24 hr) was averaged and then divided by the extent of CA in control (i.e., 0 hr). All of the drugs at least doubled the peak extent of CA in all cell lines tested (FIG. 12, panel A), although the final extent of CA could be small or large in magnitude depending on the initial centrosomal burden as shown in FIG. 11. […] The extent of CA was less in interphase cells, with maximum values of 31% and 87% for 10 and 25 μM RBN (FIG. 13, panel A). […] The peak extent in interphase HeLa cells was somewhat less at 30.7% and 48.1% for 10 and 25 μM RBN, respectively (FIG. 13, panel A). For Nos and BN, there was no major difference in CA levels in interphase versus mitotic cells.

[7] = system: human ovarian cancer xenografts; settings: nude mice carrying human ovarian cancer xenografts; cited from earlier work
[8] = system: 231 cells; experiment: Centrosome amplification (CA) by microscopy (γ-tubulin/centrin-2 foci), 231 cells; type: cell-based, human
Method: as §1

[9] = interphase HeLa cells, 25 μM, over 24 h

With `CN(C)CC(=O)Nc1ccc2[nH]c(=O)c3ccccc3c2c1` [PJ, PJ-34] the “sub-G1 population versus parent ZR-75-30 cells” value [1] was “much higher sub-G1 population compared to parent ZR-75-30 cells”, the “increase in peak CA extent over controls” value ([2]; interphase HeLa cells, 25 μM) was about 20 fold and the “peak (final) extent of CA” value [2, 9] was under 20%. The “extent of CA over controls” value ([3]; HDFs, any of the concentrations or time points assessed) was “no significant impact on CA” and the “inhibition of neurite extension” value [4] was “moderate inhibition”.
For reduced-9-bromonoscapine [RBN], the “peak extent of CA” value ([2]; interphase HeLa cells, 10 μM, over 24 h) was 30.7%, the “peak (final) extent of CA” value [2, 9] was 48.1% and the “cells having CA (maximum extent)” value ([2]; 10 μM) was 78%. The “increase in CA over controls” value ([2]; 10 μM) was “approximately 40 fold”, the “cells having CA (maximum extent)” value ([2]; 25 μM) was 42% and the “increase in CA over controls” value ([2]; 25 μM) was about 20 fold. The “peak CA” value ([3]; 10 μM) was 56 % of cells, the “peak CA” value ([3]; 25 μM) was 15% and the “extent of CA” value ([3]; mitotic HDFs, 10 μM) was 10%. The “extent of CA versus controls” value ([3]; mitotic HDFs, 25 μM) was “Only 10 but not 25 μM RBN increased the extent of CA in mitotic cells”, the “expression of Cyclin E and PLK4” value [5] was “increased Cyclin E and PLK4 expression” and the “induction of CA” value [6] was “induced CA in all three cell lines”. The “toxicity in normal tissues” value [7] was “toxicity was not detected”, the tumor progression [7] was “inhibited tumor progression” and the “change of peak CA extent over controls” value ([8]; 231 cells, 25 μM) was “slightly more than doubled”. The “final extent of CA” value ([8]; 231 cells, 25 μM, cell cycle stage not stated) was “around 90%”, the “maximum extent of CA” value ([8]; interphase 231 cells, 10 μM) was 31% and the “maximum extent of CA” value ([8]; interphase 231 cells, 25 μM) was 87%. For the same compound, the “increase in CA over controls” value ([8]; mitotic 231 cells, 10 μM) was about 2.5 fold, the “maximum extent of CA” value ([8]; mitotic 231 cells, 10 μM) was 56% and the “increase in CA over controls” value ([8]; mitotic 231 cells, 25 μM) was about 2.0 fold. The “maximum extent of CA” value ([8]; mitotic 231 cells, 25 μM) was 96%.
